Laboratory results published in ChEMBL document CHEMBL1201862, “PubChem BioAssay data set” (2004).
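48-hour exposure; five concentrations; linearly interpolated endpoints. Here, GI50 denotes the concentration required for 50% inhibition of growth.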 Active and inactive are the calls of the source. Rule as the data show it: active = GI50 up to about 1.1 µM and inactive = higher.

What was measured:
Experiment in all cases: DTP human tumour cell line panel, 48 h
[1] = system: OVCAR-8
[2] = system: ACHN
[3] = system: Hs-578T
[4] = system: SNB-75
[5] = system: NCI-H460
[6] = system: OVCAR-5
[7] = system: HCC 2998
[8] = system: OVCAR-4
[9] = system: A498
[10] = system: NCI/ADR-RES
[11] = system: BT-549
[12] = system: SK-MEL-2
[13] = system: CAKI-1
[14] = system: MDA-N
[15] = system: SK-OV-3
[16] = system: EKVX
[17] = system: SF-295
[18] = system: SK-MEL-5
[19] = system: IGROV-1
[20] = system: MDA-MB-231

Row | Structure (SMILES) | GI50 [1] | GI50 [2] | GI50 [3] | GI50 [4] | GI50 [5] | GI50 [6] | GI50 [7] | GI50 [8] | GI50 [9] | GI50 [10] | GI50 [11] | GI50 [12] | GI50 [13] | GI50 [14] | GI50 [15] | GI50 [16] | GI50 [17] | GI50 [18] | GI50 [19] | GI50 [20]
1 | N#C/C(=C\c1cc(O)c(O)c(O)c1)C(N)=O | > 100 µM (inactive) | > 93.8 µM (inactive) | > 100 µM (inactive) | 63.7 µM (inactive) | > 79.3 µM (inactive) | > 100 µM (inactive) | > 100 µM (inactive) | 74.8 µM (inactive) | > 100 µM (inactive) | > 93.1 µM (inactive) | 97.5 µM (inactive) | > 100 µM (inactive) | > 100 µM (inactive) | > 62.4 µM (inactive) | > 100 µM (inactive) | > 91 µM (inactive) | > 100 µM (inactive) | > 69.5 µM (inactive) | > 100 µM (inactive) | > 66.5 µM (inactive)
2 | Cc1cc2c(cc1Cl)SC(NNc1ccc([N+](=O)[O-])cc1)=NS2(=O)=O | > 10 µM (inactive) | > 10 µM (inactive) | > 10 µM (inactive) | > 10 µM (inactive) | > 10 µM (inactive) | > 10 µM (inactive) | > 10 µM (inactive) | > 10 µM (inactive) | > 10 µM (inactive) | > 10 µM (inactive) | > 10 µM (inactive) | > 10 µM (inactive) | > 10 µM (inactive) | > 10 µM (inactive) | > 10 µM (inactive) | > 10 µM (inactive) | > 10 µM (inactive) | > 10 µM (inactive) | > 10 µM (inactive) | > 10 µM (inactive)
3 | CSc1nc(SC)c2c(CN=[N+]=[N-])c(Br)n(Cc3ccccc3)c2n1 | > 100 µM (inactive) | > 100 µM (inactive) | 53.1 µM (inactive) | 51.3 µM (inactive) | > 100 µM (inactive) | > 100 µM (inactive) | > 100 µM (inactive) | 76.7 µM (inactive) | > 100 µM (inactive) | > 100 µM (inactive) | > 100 µM (inactive) | > 100 µM (inactive) | > 100 µM (inactive) | 99.3 µM (inactive) | 24.1 µM (inactive) | > 100 µM (inactive) | 36.1 µM (inactive) | > 100 µM (inactive) | > 100 µM (inactive) | 52.7 µM (inactive)
4 | Nc1ncnc2c1ccn2CC#CCO | > 100 µM (inactive) | > 100 µM (inactive) | > 100 µM (inactive) | > 100 µM (inactive) | > 100 µM (inactive) | > 100 µM (inactive) | > 100 µM (inactive) | > 100 µM (inactive) | > 100 µM (inactive) | > 100 µM (inactive) | > 100 µM (inactive) | > 100 µM (inactive) | > 100 µM (inactive) | > 100 µM (inactive) | > 100 µM (inactive) | > 100 µM (inactive) | > 100 µM (inactive) | > 100 µM (inactive) | > 100 µM (inactive) | > 100 µM (inactive)
5 | NCCCCC(N)C(=O)NCCNc1ccc(NCCNC(=O)C(N)CCCCN)c2c1C(=O)c1ccccc1C2=O (stereo unspecified) | 5.9 µM (inactive) | 35.6 µM (inactive) | 8.38 µM (inactive) | 43.2 µM (inactive) | 9.06 µM (inactive) | > 74.3 µM (inactive) | 16.4 µM (inactive) | > 100 µM (inactive) | 46.5 µM (inactive) | 28.2 µM (inactive) | 6.78 µM (inactive) | > 100 µM (inactive) | > 84.7 µM (inactive) | > 100 µM (inactive) | 34.4 µM (inactive) | > 100 µM (inactive) | > 100 µM (inactive) | > 100 µM (inactive) | > 100 µM (inactive) | 34 µM (inactive)
6 | C#CCCOC(=O)CC1=C(C)/C(=C/c2ccc([S+](C)[O-])cc2)c2ccc(F)cc21 (stereo unspecified) | 19.7 µM (inactive) | 19.7 µM (inactive) | 13.5 µM (inactive) | 16.3 µM (inactive) | 18 µM (inactive) | 34.2 µM (inactive) | 10.4 µM (inactive) | 19.2 µM (inactive) | 10.6 µM (inactive) | 13.3 µM (inactive) | 13.8 µM (inactive) | 15.7 µM (inactive) | 6.19 µM (inactive) | 6.67 µM (inactive) | 37 µM (inactive) | 22.8 µM (inactive) | 13.9 µM (inactive) | 12.3 µM (inactive) | 20.8 µM (inactive) | 8.49 µM (inactive)
7 | Cc1c2cccc-2c(OCCO)cc2c3ccccc3n(C)c12 | 2.9 µM (inactive) | 5.12 µM (inactive) | 2.6 µM (inactive) | 5.28 µM (inactive) | 3.73 µM (inactive) | 4.83 µM (inactive) | 3.64 µM (inactive) | 3.09 µM (inactive) | 7.59 µM (inactive) | 30.8 µM (inactive) | 3.45 µM (inactive) | 3.15 µM (inactive) | 10.2 µM (inactive) | 3.65 µM (inactive) | 1.58 µM (inactive) | 2.63 µM (inactive) | 3.67 µM (inactive) | 2.12 µM (inactive) | 1.49 µM (inactive) | 2.75 µM (inactive)
8 | Nc1nc2c(c(=O)[nH]1)C(c1ccccc1)CC(=O)N2 (stereo unspecified) | > 100 µM (inactive) | > 100 µM (inactive) | > 100 µM (inactive) | > 100 µM (inactive) | > 100 µM (inactive) | > 100 µM (inactive) | > 100 µM (inactive) | > 100 µM (inactive) | > 100 µM (inactive) | > 100 µM (inactive) | > 100 µM (inactive) | > 100 µM (inactive) | – | > 100 µM (inactive) | > 100 µM (inactive) | > 100 µM (inactive) | > 100 µM (inactive) | > 100 µM (inactive) | > 100 µM (inactive) | > 100 µM (inactive)
9 | CN(CCCN(C)Cc1ccc(Cl)c(Cl)c1)CCN1CCCC1 | 29.5 µM (inactive) | 27.8 µM (inactive) | 17.7 µM (inactive) | 19.1 µM (inactive) | 16.9 µM (inactive) | 28.7 µM (inactive) | 3.5 µM (inactive) | 66.7 µM (inactive) | 13.9 µM (inactive) | > 66.5 µM (inactive) | 30.8 µM (inactive) | 11 µM (inactive) | 29.2 µM (inactive) | 4.32 µM (inactive) | 75.3 µM (inactive) | 36.3 µM (inactive) | 21.7 µM (inactive) | 6.92 µM (inactive) | 27.7 µM (inactive) | 13.1 µM (inactive)
10 | CC(O)(Cc1ccccc1C#N)Cc1ccccc1C#N | 54.7 µM (inactive) | 88.5 µM (inactive) | > 100 µM (inactive) | 37 µM (inactive) | 73.6 µM (inactive) | > 100 µM (inactive) | > 100 µM (inactive) | 54.2 µM (inactive) | > 100 µM (inactive) | 27.9 µM (inactive) | 38.5 µM (inactive) | > 100 µM (inactive) | > 100 µM (inactive) | > 100 µM (inactive) | > 100 µM (inactive) | > 100 µM (inactive) | 74 µM (inactive) | 57.3 µM (inactive) | > 100 µM (inactive) | > 100 µM (inactive)
11 | CNC(=O)c1nc[nH]c1/N=N/N(C)N | > 100 µM (inactive) | – | > 100 µM (inactive) | 80.9 µM (inactive) | 55 µM (inactive) | > 100 µM (inactive) | > 100 µM (inactive) | > 100 µM (inactive) | > 100 µM (inactive) | > 100 µM (inactive) | > 100 µM (inactive) | > 100 µM (inactive) | > 100 µM (inactive) | > 100 µM (inactive) | > 100 µM (inactive) | > 100 µM (inactive) | > 100 µM (inactive) | 49.9 µM (inactive) | > 100 µM (inactive) | > 100 µM (inactive)
12 | Clc1cc2nnn(C3CCCO3)c2cc1Cl (stereo unspecified) | > 100 µM (inactive) | – | 62.7 µM (inactive) | 20 µM (inactive) | > 100 µM (inactive) | > 100 µM (inactive) | > 100 µM (inactive) | – | 98.4 µM (inactive) | > 100 µM (inactive) | 49.7 µM (inactive) | > 100 µM (inactive) | > 100 µM (inactive) | > 100 µM (inactive) | > 100 µM (inactive) | 66.1 µM (inactive) | > 100 µM (inactive) | 75.3 µM (inactive) | > 100 µM (inactive) | > 100 µM (inactive)
13 | Cc1ccc(CC2(OCCN(C)C)CCC(C(C)(C)C)CC2)cc1 (stereo unspecified) | 9.4 µM (inactive) | 8.02 µM (inactive) | 8.04 µM (inactive) | 6.71 µM (inactive) | 1.79 µM (inactive) | 3.3 µM (inactive) | 1.9 µM (inactive) | 5.13 µM (inactive) | 11.4 µM (inactive) | 7.98 µM (inactive) | 6.22 µM (inactive) | 2.11 µM (inactive) | 4.21 µM (inactive) | 2.28 µM (inactive) | 11.2 µM (inactive) | 12.3 µM (inactive) | 4.54 µM (inactive) | 1.58 µM (inactive) | 8.99 µM (inactive) | 5.56 µM (inactive)
14 | Cc1c2cc[n+](C)cc2c(C)c2c1oc1ccccc12 | 1.67 µM (inactive) | 39.6 µM (inactive) | 0.54 µM (active) | 1.98 µM (inactive) | 3.24 µM (inactive) | 15.6 µM (inactive) | 2.75 µM (inactive) | 7.14 µM (inactive) | 42.9 µM (inactive) | > 100 µM (inactive) | 0.608 µM (active) | 4.13 µM (inactive) | 28.4 µM (inactive) | 11 µM (inactive) | 14.7 µM (inactive) | 5.5 µM (inactive) | 1.69 µM (inactive) | 3.41 µM (inactive) | 4.74 µM (inactive) | 12.9 µM (inactive)
